According to patent US10808007B2, “Desacetoxytubulysin H and analogs thereof” (WILLIAM MARSH RICE UNIVERSITY, priority 2015, dated 2020):
Where two headings read alike, the source gives them in different places.

Key:
Type in all cases: cell-based
[1] = test system: HEK 293T (human embryonic kidney cells); test: Cytotoxic assay (CellTiter-Glo, 72 h), HEK 293T; conditions: Homo sapiens, HEK-293T, read-out: IC50 HEK 293T
melanoma cell lines = test: NCI-60 cytotoxicity, melanoma; conditions: Homo sapiens
Protocol: (§1) A number of the synthesized compounds (i.e. Tb1-Tb23) were evaluated for their activity against a variety of cancer cell lines, namely the NCI-60 human cancer cell line panel representing leukemia, melanoma, lung, colon, brain, ovary, breast, prostate and kidney types of cancer through the In Vitro Cell Line Screening Project (IVCLSP) of the National Cancer Institute (NCI), and a summary of the results is shown in Table 1. […] As there was interest in the activity in certain other cell lines, these and the remaining compounds (Tb1-Tb41, PTb-D42 and PTb-D43) were subjected to further testing against MES SA (uterine sarcoma cells), MES SA DX (multidrug resistant uterine sarcoma cells), and HEK 293T (human embryonic kidney cells). […] Tubulysins are known to be substrates for Pgp pumps (Xiangming, et al., 2013; Kaur, et al., 2006; Szakacs, et al., 2006) as supported by the observed low activities of all tubulysins tested except Tb28, Tb32 and Tb33.

[2] = test system: leukemia cancer cell lines; test: NCI-60 cytotoxicity, leukemia; conditions: Homo sapiens
Protocol: as §1

breast cancer cell lines = test: NCI-60 cytotoxicity, breast cancer; conditions: Homo sapiens
Protocol: as §1

[3] = test system: ovarian cancer cell lines; test: NCI-60 cytotoxicity, ovarian cancer; conditions: Homo sapiens
Protocol: as §1

[4] = test system: MES SA (uterine sarcoma cells); test: Cytotoxic assay (CellTiter-Glo, 72 h), MES SA; conditions: Homo sapiens, MES-SA, read-out: IC50 MES SA
renal cancer cell lines = test: NCI-60 cytotoxicity, renal cancer; conditions: Homo sapiens
Protocol: as §1

[5] = test system: prostate cancer cell lines; test: NCI-60 cytotoxicity, prostate cancer; conditions: Homo sapiens
Protocol: as §1

colon cancer cell lines = test: NCI-60 cytotoxicity, colon cancer; conditions: Homo sapiens
Protocol: as §1

CNS cancer cell lines = test: NCI-60 cytotoxicity, CNS cancer; conditions: Homo sapiens
Protocol: as §1

[6] = test system: MES SA DX (multidrug resistant uterine sarcoma cells); test: Cytotoxic assay (CellTiter-Glo, 72 h), MES SA DX; conditions: Homo sapiens
[7] = test system: non-small cell lung cancer cell lines; test: NCI-60 cytotoxicity, non-small cell lung cancer; conditions: Homo sapiens
Protocol: as §1

Row | Structure (SMILES) | IC50 ([1]; 72 h) [nM] | GI50 (melanoma cell lines; NCI-60, selected value) [nM] | GI50 ([2]; NCI-60, selected value) [nM] | GI50 (breast cancer cell lines; NCI-60, selected value) [nM] | GI50 ([3]; NCI-60, selected value) [nM] | IC50 ([4]; 72 h) [nM] | GI50 (renal cancer cell lines; NCI-60, selected value) [nM] | GI50 ([5]; NCI-60, selected value) [nM] | GI50 (colon cancer cell lines; NCI-60, selected value) [nM] | GI50 (CNS cancer cell lines; NCI-60, selected value) [nM] | IC50 [6] [nM] | GI50 ([7]; NCI-60, selected value) [nM] | further results
1 | CC[C@H](C)[C@H](NC(=O)NC(C)(C)C)C(=O)N(C)[C@H](C[C@@H](OC(C)=O)c1nc(C(=O)N[C@@H](Cc2ccccc2)C[C@H](C)C(=O)OC)cs1)C(C)C [Tb6, Methyl (2S,4R)-4-(2-((6S,9R,1R)-6-((S)-sec-butyl)-9-isopropyl-2,2,8-trimethyl-4,7,13-trioxo-12-oxa-3,5,8-triazatetradecan-11-yl)thiazole-4-carboxamido)-2-methyl-5-phenylpentanoate] | > 50 | 83.9 | 286 | 71.4 | 127 | > 50 | 154 | 689 | 339 | 439 | > 50 | 164 | 
2 | CC[C@H](C)[C@H](NC(=O)Nc1ccccc1)C(=O)N(C)[C@H](C[C@@H](OC(C)=O)c1nc(C(=O)N[C@@H](Cc2ccccc2)C[C@H](C)C(=O)OC)cs1)C(C)C [Tb5, (2S,4R)-Methyl 4-(2-((1R,3R)-1-acetoxy-3-((2S,3S)—N,3-dimethyl-2-(3-phenylureido)pentanamido)-4-methylpentyl)thiazole-4-carboxamido)-2-methyl-5-phenylpentanoate] | > 50 | 416 | > 1000 | 514 | > 1000 | > 50 | > 1000 | > 1000 | > 1000 | > 1000 | > 50 | > 1000 | 
3 | CC[C@H](C)[C@H](NC(=O)C12CC(NC(C)=O)(C1)C2)C(=O)N(C)[C@H](C[C@@H](OC(C)=O)c1nc(C(=O)N[C@@H](Cc2ccccc2)C[C@H](C)C(=O)OC)cs1)C(C)C [Tb7, Methyl (2S,4R)-4-(2-((1R,3R)-3-((2S,3S)-2-(3-acetamidobicyclo[1.1.1]pentane-1-carboxamido)-N,3-dimethylpentanamido)-1-acetoxy-4-methylpentyl)thiazole-4-carboxamido)-2-methyl-5-phenyl-pentanoate] | > 50 | 31.4 | 17.6 | 42.8 | 48.5 | > 50 | 134 | 105 | 61.3 | 219 | > 50 | 57.8 | 
4 | CCC(C)[C@H](NC(=O)CN(C)C)C(=O)N(C)[C@H](C[C@@H](OC(C)=O)c1nc(C(=O)NC23C4C5C2C2C3C4C52C(=O)OC)cs1)C(C)C (stereo in doubt) [Tb13, Methyl 4-(2-((6S,9R,11R)-6-((S)-sec-butyl)-9-isopropyl-2,8-dimethyl-4,7,13-trioxo-12-oxa-2,5,8-triaza-tetradecan-11-yl)thiazole-4-carboxamido)cubane-1-carboxylate] | > 50 | 40.2 | 13.8 | 136 | 111 | > 50 | 167 | 167 | 122 | 117 | > 50 | 142 | 
5 | CNC12C3C4C1C1C2C3C41C(=O)N[C@H](C(=O)N(C)[C@H](C[C@@H](OC(C)=O)c1nc(C(=O)N[C@@H](Cc2ccccc2)C[C@H](C)C(=O)OC)cs1)C(C)C)C1CC1 (stereo partly drawn) [Tb23, Methyl (2S,4R)-4-(2-((1R,3R)-1-acetoxy-3-((S)-2-cyclopropyl-N-methyl-2-(4-(methylamino)cubane-1-carboxamido)acetamido)-4-methylpentyl)thiazole-4-carboxamido)-2-methyl-5-phenylpentanoate] | > 50 | 45.1 | 16.3 | 44.7 | 54.9 | > 50 | 181 | 308 | 204 | 119 | > 50 | 84.5 | 
6 | CC[C@H](C)[C@H](NC(=O)C12CC(NC)(C1)C2)C(=O)N(C)[C@H](C[C@@H](OC(C)=O)c1nc(C(=O)N[C@@H](Cc2ccccc2)C[C@H](C)C(=O)OC)cs1)C(C)C [Tb8, Methyl(2S,4R)-4-(2-((1R,3R)-1-acetoxy-3-((2S,3S)—N,3-dimethyl-2-(3-(methylamino)-bicyclo[1.1.1]pentane-1-carboxamido)pentanamido)-4-methylpentyl)thiazole-4-carboxamido)-2-methyl, 5-phenyl-pentanoate-phenylpentanoate] | > 50 | 33.3 | 9.62 | 52.1 | 75 | > 50 | 164 | 125 | 121 | 105 | > 50 | 96.7 | 
7 | CC[C@H](C)[C@H](NC(=O)C12C3C4C1C1C2C3C41NC)C(=O)N(C)[C@H](C[C@@H](OC(C)=O)c1nc(C(=O)N[C@@H](Cc2ccccc2)C[C@H](C)C(=O)OC)cs1)C(C)C (stereo partly drawn) [Tb10, Methyl(2S,4R)-4-(2-((1R,3R)-1-acetoxy-3-((2S,3S)—N,3-dimethyl-2-(4-(methylamino)cubane-1-carboxamido)pentanamido)-4-methylpentyl)thiazole-4-carboxamido)-2-methyl-5-phenylpentanoate] | > 50 | 49.5 | 61.3 | 66.4 | 92.6 | > 50 | 413 | 500 | 355 | 271 | > 50 | 60.2 | 
8 | CCC(C)[C@H](NC(=O)[C@H]1CCCCN1C)C(=O)N(C)[C@H](C[C@@H](OC(C)=O)c1nc(C(=O)NC23C4C5C2C2C3C4C52C(=O)OC)cs1)C(C)C (stereo in doubt) [Tb11, Methyl 4-(2-((1R,3R)-1-acetoxy-3-((2S,3S)—N,3-dimethyl-2-((R)-1-methylpiperidine-2-carboxamido)-pentanamido)-4-methylpentyl)thiazole-4-carboxamido)cubane-1-carboxylate] | 0.26 | 0.349 |  |  |  | 0.84 |  | 1.13 | 1.14 | 1.15 | > 50 |  | GI50 (melanoma cell lines; NCI-60): 0.349 nM; GI50 ([2]; NCI-60): 0.159 nM; GI50 (breast cancer cell lines; NCI-60): 0.428 nM; GI50 ([3]; NCI-60): 0.489 nM; GI50 (renal cancer cell lines; NCI-60): 0.768 nM; GI50 ([5]; NCI-60): 1.13 nM; GI50 (colon cancer cell lines; NCI-60): 1.14 nM; GI50 (CNS cancer cell lines; NCI-60): 1.15 nM; GI50 ([7]; NCI-60): 0.331 nM
9 | CC[C@H](C)[C@H](NC(=O)N[C@@H](C)c1ccccc1)C(=O)N(C)[C@H](C[C@@H](OC(C)=O)c1nc(C(=O)N[C@@H](Cc2ccccc2)C[C@H](C)C(=O)OC)cs1)C(C)C [Tb4, (2S,4R)-Methyl 4-(2-((2S,6S,9R,1 IR)-6-((S)-sec-butyl)-9-isopropyl-8-methyl-4,7,13-trioxo-2-phenyl-12-oxa-3,5,8-tri-azatetradecan-11-yl)thiazole-4-carboxamido)-2-methyl-5-phenylpentanoate] | > 50 | > 1000 | > 1000 | > 1000 | > 1000 | > 50 | > 1000 | > 1000 | > 1000 | > 1000 | > 50 | > 1000 | 
10 | CC[C@H](C)[C@H](NC(=O)[C@H]1CCCCN1C)C(=O)N(C)[C@H](C[C@@H](OC(C)=O)c1nc(C(=O)N[C@@H](Cc2ccccc2)C[C@H](C)C(=O)OC)cs1)C(C)C [Tb2, Methyl (2S,4R)-4-(2-((1R,3R)-1-acetoxy-3-((2S,3S)—N,3-dimethyl-2-((R)-1-methylpiperidine-2-carbo-xamido)pentanamido)-4-methylpentyl)thiazole-4-carboxamido)-2-methyl-5-phenylpentanoate] | 0.03 | 0.03 | 0.078 | 0.043 | 0.042 | 0.2 | 0.218 | 0.162 | 0.158 | 0.219 | > 10 | 0.28 | IC50 [1]: 0.03 nM; IC50 [4]: 0.2 nM
11 | CC[C@H](C)[C@H](NC(=O)C12C3C4C1C1C2C3C41NC(C)=O)C(=O)N(C)[C@H](C[C@@H](OC(C)=O)c1nc(C(=O)N[C@@H](Cc2ccccc2)C[C@H](C)C(=O)OC)cs1)C(C)C (stereo partly drawn) [Tb9, Methyl(2S,4R)-4-(2-((R,3R)-3-((2S,3S)-2-(4-acetamidocubane-1-carboxamido)-N,3-dimethylpentan amido)-1-acetoxy-4-methylpentyl)thiazole-4-carboxamido)-2-methyl-5-phenylpentanoate] | > 50 | 46.6 | 24.2 | 53.2 | 61 | > 50 | 238 | 459 | 331 | 246 | > 50 | 83.6 | 
